*1 amine or outer side, *2 acyl side, *3 side chain or, on linkers, in order; H or OH if unused. Where a SMILES comes first, the peptide text is derived from it. Side-chain parts run from the residue outwards. [ ]: non-standard residue; d: D form. The star is where a group is joined. C18 diacid = O=C(O)CCCCCCCCCCCCCCCCC(=O)*; γGlu = O=C(O)[C@H](CCC(=O)[*:2])N[*:1]; X1 = O=C(CC1(N[*:1])CCOCC1)[*:2]; Api = NC1(C(=O)O)CCNCC1; AEEA = NCCOCCOCC(=O)O; Aib = CC(C)(N)C(=O)O
Key:
[1] = target: T1, human CRF2a receptor (Homo sapiens, UniProt Q13324); experiment: Activity at human CRF2a receptor, cAMP functional assay in TeloHEAC cells; assay type: cell-based; settings: TeloHEAC cells stably expressing human CRF2a receptor, relative to urocortin 2 (100 nM = 100%)
T1 construct: expressed in transfected cells; host or cells: TeloHEAC cells
T1 sequence (Q13324 1-411): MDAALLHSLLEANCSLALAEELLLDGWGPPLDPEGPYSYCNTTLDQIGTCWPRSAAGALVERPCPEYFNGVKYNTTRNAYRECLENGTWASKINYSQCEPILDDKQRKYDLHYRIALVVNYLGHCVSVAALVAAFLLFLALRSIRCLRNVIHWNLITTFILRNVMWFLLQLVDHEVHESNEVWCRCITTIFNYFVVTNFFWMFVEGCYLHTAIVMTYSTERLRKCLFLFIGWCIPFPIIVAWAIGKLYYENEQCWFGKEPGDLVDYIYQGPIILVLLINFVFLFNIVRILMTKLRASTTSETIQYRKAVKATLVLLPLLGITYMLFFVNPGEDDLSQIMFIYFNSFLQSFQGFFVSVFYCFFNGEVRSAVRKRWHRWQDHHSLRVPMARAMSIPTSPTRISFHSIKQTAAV
Summary of the method: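 TeloHEAC cells stably expressing human CRF2a (10000 cells/well) were treated with 16-point 1:2 compound dilutions in HBSS/20 mM HEPES with IBMX for 30 min at 37° C. cAMP was read by HTRF (665/620 nm ratio). EC50 was the concentration giving 50% activation, with 100 nM urocortin 2 set as 100%.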

[2] = target: T2, CFR1R receptor (Homo sapiens, UniProt P34998); experiment: Activity at anti-target CFR1R receptor, cAMP assay in CRF1R-overexpression CHO-K1 cells; assay type: cell-based; settings: 100% = Sauvagine at 100 nM; for EC50: cAMP
T2 construct: host or cells: CHO-K1 (clone 2)
T2 sequence (P34998 24-415): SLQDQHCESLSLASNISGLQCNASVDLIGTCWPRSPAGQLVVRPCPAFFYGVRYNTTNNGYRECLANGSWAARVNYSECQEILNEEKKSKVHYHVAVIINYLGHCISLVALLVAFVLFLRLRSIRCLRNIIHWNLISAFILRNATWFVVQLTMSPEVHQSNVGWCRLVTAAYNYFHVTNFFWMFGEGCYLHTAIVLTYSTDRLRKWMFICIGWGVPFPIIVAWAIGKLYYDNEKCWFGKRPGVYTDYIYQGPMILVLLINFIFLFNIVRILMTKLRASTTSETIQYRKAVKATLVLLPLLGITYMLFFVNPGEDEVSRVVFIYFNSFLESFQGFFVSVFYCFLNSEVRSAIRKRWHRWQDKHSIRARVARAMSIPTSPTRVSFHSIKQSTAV
Summary of the method: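 Signal is normalised to 100 nM Sauvagine, taken as 100% activation, in clone 2 cells plated at a final 4000 cells/well from frozen stocks.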

[3] = In vitro subcutaneous tissue supernatant (SCts) stability and metabolite identification, rat; assay type: in vitro ADME; design: remaining at 2 h: dose or concentration left out as unconfirmed; settings: male, Sprague Dawley; rat subcutaneous tissue supernatant (SCts), 37° C, 2 h
[4] = Chemical stability in buffer (pH 7.4 / pH 4.5), % purity loss; assay type: physicochemical; settings: 40° C. vs 5° C., 14 or 28 days; for Buffer stability pH 7.4 % purity loss: 100 mM phosphate buffer pH 7.4; for Buffer stability pH 4.5 % purity loss: 100 mM acetate buffer pH 4.5
Summary of the method: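 Compounds dissolved at 10 mg/mL target in 100 mM phosphate (pH 7.4) or 100 mM acetate (pH 4.5) buffer for 1 h at room temperature, then centrifuged. Diluted supernatant stored at 5 °C or 40 °C for 14 or 28 days; % purity loss by LC-UV.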

[5] = Pharmacokinetics in male Sprague Dawley rats after subcutaneous administration; assay type: in vivo; settings: plasma, rat, SC, 0.05 mg/kg
Experimental: The pharmacokinetics of UCN-2 derivatives was studied in male Sprague Dawley rats after subcutaneous administration (SC) at 0.05, 0.1, 0.3 or 1 mg/kg. Peptides were formulated as a solution in 10 mM phosphate pH 7.4 buffer+glycerol 85% (2.3% v/v)). […] The supernatant (200 μL) was analyzed by LC-MSMS. Pharmacokinetic parameters were calculated using established non-compartmental methods. The area under the plasma concentration curve versus time (AUC) was determined using Watson LIMS (version 7.6), with linear trapezoidal interpolation in the ascending slope and logarithmic trapezoidal interpolation in the descending slope. The portion of the AUC from the last measurable concentration to infinity was estimated from the equation, Ct/kel, where Ct represents the last measurable concentration and kel is the elimination rate constant. The latter was determined from the concentration curve versus time by linear regression at the terminal phase of the semi-logarithmic plot.

EC50 [1] | Emax (% I) [2] | EC50 [2] | remaining at 2 h [3] | Buffer stability pH 7.4 % purity loss [4] | AUC(0-t) [5] | Cmax [5] | Tmax [5] | half-life [5] | Buffer stability pH 4.5 % purity loss [4] | SMILES
0.16 nM | 11 % I | > 250 nM | 83% | 0/Not Tested % | 1620 ng·h/mL | 111 ng/mL | 6 h | 612 min |  | CC[C@H](C)[C@H](NC(C)=O)C(=O)N[C@H](C(=O)N[C@@H](CC(C)C)C(=O)N[C@@H](CO)C(=O)N[C@@H](CC(C)C)C(=O)N[C@@H](CC(=O)O)C(=O)N[C@@H](C(=O)N1CCC[C@H]1C(=O)N[C@H](C(=O)N[C@@H](CCCCN)C(=O)N[C@@H](CC(C)C)C(=O)N[C@@H](CCCCNC(=O)CC[C@H](NC(=O)CCCCCCCCCCCCCCCCC(=O)O)C(=O)O)C(=O)N[C@@H](CCCCN)C(=O)N[C@H](C(=O)N[C@@H](CC(C)C)C(=O)N[C@@H](CC(C)C)C(=O)N[C@@H](CCC(=O)O)C(=O)N[C@@H](CCC(N)=O)C(=O)N[C@@H](CCC(=O)O)C(=O)N[C@@H](CCCCN)C(=O)N[C@@H](CCC(N)=O)C(=O)N[C@@H](CCCCN)C(=O)N[C@@H](CCCCN)C(=O)N[C@@H](CCC(N)=O)C(=O)N[C@@H](CCCNC(=N)N)C(=O)N[C@@H](CCC(=O)O)C(=O)N[C@@H](CCC(N)=O)C(=O)N[C@@H](C)C(=O)N[C@@H](CCC(=O)O)C(=O)N[C@H](C(=O)N[C@@H](CC(N)=O)C(=O)NC1(CC(=O)N[C@@H](CCC(N)=O)C(=O)N[C@H](C(=O)N[C@@H](CC(C)C)C(=O)N[C@@H](C)C(=O)N[C@@H](CCC(N)=O)C(=O)N[C@H](C(N)=O)C(C)C)[C@@H](C)CC)CCOCC1)[C@@H](C)O)[C@@H](C)CC)[C@@H](C)CC)C(C)C)C(C)C [compound 199] (Ac-IVLSLD[dV]PIKLK([γGlu-C18 diacid])KILLEQEKQKKQREQAETN[X1]QILAQV-NH2)
0.26 nM | 37 % I |  | 82% | 0.0/0.0 ^ % | 2100 ng·h/mL | 137 ng/mL | 7 h | 582 min | 0.0/0.0 ^ % | CC[C@H](C)[C@H](NC(C)=O)C(=O)N[C@H](C(=O)N[C@@H](CC(C)C)C(=O)N[C@@H](CO)C(=O)N[C@@H](CC(C)C)C(=O)N[C@@H](CC(=O)O)C(=O)N[C@@H](C(=O)N1CCC[C@H]1C(=O)N[C@H](C(=O)N[C@@H](CCCCN)C(=O)N[C@@H](CC(C)C)C(=O)N[C@@H](CCCCNC(=O)CC[C@H](NC(=O)CCCCCCCCCCCCCCCCC(=O)O)C(=O)O)C(=O)N[C@@H](CCCCN)C(=O)N[C@H](C(=O)N[C@@H](CC(C)C)C(=O)N[C@@H](CC(C)C)C(=O)N[C@@H](CCC(=O)O)C(=O)N[C@@H](CCC(N)=O)C(=O)N[C@@H](CCC(=O)O)C(=O)N[C@@H](CCCCN)C(=O)N[C@@H](CCC(N)=O)C(=O)N[C@@H](CCCCN)C(=O)N[C@@H](C)C(=O)N[C@@H](CCC(N)=O)C(=O)N[C@@H](CCCNC(=N)N)C(=O)N[C@@H](CCC(=O)O)C(=O)N[C@@H](CCC(N)=O)C(=O)N[C@@H](C)C(=O)N[C@@H](CCC(=O)O)C(=O)N[C@H](C(=O)N[C@@H](CC(N)=O)C(=O)NC1(C(=O)N[C@@H](CCC(N)=O)C(=O)N[C@H](C(=O)N[C@@H](CC(C)C)C(=O)N[C@@H](C)C(=O)N[C@@H](CCC(N)=O)C(=O)N[C@H](C(N)=O)C(C)C)[C@@H](C)CC)CCNCC1)[C@@H](C)O)[C@@H](C)CC)[C@@H](C)CC)C(C)C)C(C)C [compound 187] (Ac-IVLSLD[dV]PIKLK([γGlu-C18 diacid])KILLEQEKQKAQREQAETN[Api]QILAQV-NH2)
0.55 nM | −2 % I | > 250 nM | 74% | 0.0/0.0 ^ % | 2710 ng·h/mL | 159 ng/mL | 5 h | 348 min | 0.0/0.0 ^ % | CC[C@H](C)[C@H](NC(C)=O)C(=O)N[C@H](C(=O)N[C@@H](CC(C)C)C(=O)N[C@@H](CO)C(=O)N[C@@H](CC(C)C)C(=O)N[C@@H](CC(=O)O)C(=O)N[C@@H](C(=O)N1CCC[C@H]1C(=O)N[C@H](C(=O)N[C@@H](CCCCN)C(=O)N[C@@H](CC(C)C)C(=O)N[C@@H](CCCCNC(=O)COCCOCCNC(=O)COCCOCCNC(=O)CC[C@H](NC(=O)CCCCCCCCCCCCCCCCC(=O)O)C(=O)O)C(=O)N[C@@H](CCCCN)C(=O)N[C@H](C(=O)N[C@@H](CC(C)C)C(=O)N[C@@H](CC(C)C)C(=O)N[C@@H](CCC(=O)O)C(=O)N[C@@H](CCC(N)=O)C(=O)N[C@@H](CCC(=O)O)C(=O)N[C@@H](CCCCN)C(=O)N[C@@H](CCC(N)=O)C(=O)N[C@@H](CCCCN)C(=O)N[C@@H](CCCCN)C(=O)N[C@@H](CCC(N)=O)C(=O)N[C@@H](CCCNC(=N)N)C(=O)N[C@@H](CCC(=O)O)C(=O)N[C@@H](CCC(N)=O)C(=O)N[C@@H](C)C(=O)N[C@@H](CCC(=O)O)C(=O)N[C@H](C(=O)N[C@@H](CC(N)=O)C(=O)NC(C)(C)C(=O)N[C@@H](CCC(N)=O)C(=O)N[C@H](C(=O)N[C@@H](CC(C)C)C(=O)N[C@@H](C)C(=O)N[C@@H](CCC(N)=O)C(=O)N[C@H](C(N)=O)C(C)C)[C@@H](C)CC)[C@@H](C)O)[C@@H](C)CC)[C@@H](C)CC)C(C)C)C(C)C [compound 98] (Ac-IVLSLD[dV]PIKLK([AEEA-AEEA-γGlu-C18 diacid])KILLEQEKQKKQREQAETN[Aib]QILAQV-NH2)
0.3 nM | 9 % I | > 250 nM | 95% | 0.0/Not Tested % | 1930 ng·h/mL | 112 ng/mL | 5 h | 342 min |  | CC[C@H](C)[C@H](NC(C)=O)C(=O)N[C@H](C(=O)N[C@@H](CC(C)C)C(=O)N[C@@H](CO)C(=O)N[C@@H](CC(C)C)C(=O)N[C@@H](CC(=O)O)C(=O)N[C@@H](C(=O)N1CCC[C@H]1C(=O)N[C@H](C(=O)N[C@@H](CCCCN)C(=O)N[C@@H](CC(C)C)C(=O)N[C@@H](CCCCNC(=O)CC[C@H](NC(=O)CCCCCCCCCCCCCCCCC(=O)O)C(=O)O)C(=O)N[C@@H](CCCCN)C(=O)N[C@H](C(=O)N[C@@H](CC(C)C)C(=O)N[C@@H](CC(C)C)C(=O)N[C@@H](CCC(=O)O)C(=O)N[C@@H](CCC(N)=O)C(=O)N[C@@H](CCC(=O)O)C(=O)N[C@@H](CCCCN)C(=O)N[C@@H](CCC(N)=O)C(=O)N[C@@H](CCCCN)C(=O)NC(C)(C)C(=O)N[C@@H](CCC(N)=O)C(=O)N[C@@H](CCCNC(=N)N)C(=O)N[C@@H](CCC(=O)O)C(=O)N[C@@H](CCC(N)=O)C(=O)N[C@@H](C)C(=O)N[C@@H](CCC(=O)O)C(=O)N[C@H](C(=O)N[C@@H](CC(N)=O)C(=O)NC(C)(C)C(=O)N[C@@H](CCC(N)=O)C(=O)N[C@H](C(=O)N[C@@H](CC(C)C)C(=O)N[C@@H](C)C(=O)N[C@@H](CCC(N)=O)C(=O)N[C@H](C(N)=O)C(C)C)[C@@H](C)CC)[C@@H](C)O)[C@@H](C)CC)[C@@H](C)CC)C(C)C)C(C)C [compound 190] (Ac-IVLSLD[dV]PIKLK([γGlu-C18 diacid])KILLEQEKQK[Aib]QREQAETN[Aib]QILAQV-NH2)

From US20260001928A1 (CORTERIA PHARMACEUTICALS, priority 2022, published 2026)
